Measured values: PubChem BioAssay (NCI)
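Growth conditions: 96-well plates. Treatment: test compound, 48 hours, 5 concentrations. Analysis: linear interpolation between bracketing concentrations; unreached endpoints set to highest concentration. At the GI50, growth is halved. TGI: concentration producing complete growth inhibition.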

How the values were obtained:
Test in all cases: NCI anticancer screen, dose series, 48 h
[1] = tested on: MCF7 breast
[2] = tested on: OVCAR-3 ovarian
[3] = tested on: HCC-2998 colon
[4] = tested on: RXF 393 renal
[5] = tested on: SR leukemia
[6] = tested on: NCI-H23 lung
[7] = tested on: SW-620 colon
[8] = tested on: NCI/ADR-RES ovarian
[9] = tested on: EKVX NSCLC
[10] = tested on: SK-OV-3 ovarian
[11] = tested on: SK-MEL-2 melanoma
[12] = tested on: SF-295 CNS
[13] = tested on: NCI-H226 lung
[14] = tested on: HCT-15 colon
[15] = tested on: NCI-H460 lung
[16] = tested on: SN12C renal
[17] = tested on: BT-549 breast
[18] = tested on: IGROV1 ovarian
[19] = tested on: SF-268 CNS
[20] = tested on: DU-145 prostate
[21] = tested on: A549 NSCLC
[22] = tested on: SF-539 CNS
[23] = tested on: RPMI-8226 leukemia
[24] = tested on: SK-MEL-5 melanoma
[25] = tested on: TK-10 renal
[26] = tested on: HL-60(TB) leukemia
[27] = tested on: A498 renal
[28] = tested on: CCRF-CEM leukemia
[29] = tested on: MDA-MB-231 breast
[30] = tested on: U251 CNS
[31] = tested on: MOLT-4 leukemia
[32] = tested on: UACC-62 melanoma
[33] = tested on: ACHN renal
[34] = tested on: COLO 205 colon
[35] = tested on: MDA-MB-435
[36] = tested on: M14 melanoma
[37] = tested on: 786-0 renal
[38] = tested on: KM12 colon
[39] = tested on: HOP-62 NSCLC
[40] = tested on: K-562 leukemia
[41] = tested on: HCT-116 colon
[42] = tested on: OVCAR-4 ovarian
[43] = tested on: MALME-3M melanoma
[44] = tested on: OVCAR-5 ovarian
[45] = tested on: UACC-257 melanoma
[46] = tested on: CAKI-1 renal
[47] = tested on: T-47D breast
[48] = tested on: UO-31 renal
[49] = tested on: OVCAR-8 ovarian
[50] = tested on: SNB-75 CNS
[51] = tested on: HOP-92 NSCLC
[52] = tested on: PC-3 prostate
[53] = tested on: HS 578T breast
[54] = tested on: SK-MEL-28 melanoma
[55] = tested on: HT29 colon
[56] = tested on: SNB-19 CNS

## CNC1CCc2c(sc(NC(=O)c3ccc(C(C)(C)C)cc3)c2C(N)=O)C1 (configuration not stated)
[1]
  GI50: 1650 nM
  TGI: 3530 nM
[2]
  GI50: 1920 nM
  TGI: 3990 nM
[3]
  GI50: 1760 nM
  TGI: 3340 nM
[4]
  GI50: 1420 nM
  TGI: 2810 nM
[5]
  GI50: 1290 nM
  TGI: 3510 nM
[6]
  GI50: 1670 nM
  TGI: 3620 nM
[7]
  GI50: 1910 nM
  TGI: 3660 nM
[8]
  GI50: 2340 nM
  TGI: 6340 nM
[9]
  GI50: 1720 nM
  TGI: 4260 nM
[10]
  GI50: 2350 nM
  TGI: 6140 nM
[11]
  GI50: 2000 nM
  TGI: 4100 nM
[12]
  GI50: 1760 nM
  TGI: 3270 nM
[13]
  GI50: 1870 nM
  TGI: 4020 nM
[14]
  GI50: 1520 nM
  TGI: 3150 nM
[15]
  GI50: 1630 nM
  TGI: 3330 nM
[16]
  GI50: 2400 nM
  TGI: 7340 nM
[17]
  GI50: 1850 nM
  TGI: 4670 nM
[18]
  GI50: 1590 nM
  TGI: 3580 nM
[19]
  GI50: 2440 nM
  TGI: 5420 nM
[20]
  GI50: 1950 nM
  TGI: 4030 nM
[21]
  GI50: 2090 nM
  TGI: 4460 nM
[22]
  GI50: 1660 nM
  TGI: 3070 nM
[23]
  GI50: 1950 nM
  TGI: 4890 nM
[24]
  GI50: 1700 nM
  TGI: 3080 nM
[25]
  GI50: 2000 nM
  TGI: 3760 nM
[26]
  GI50: 634 nM
  TGI: 2360 nM
[27]
  GI50: 1480 nM
  TGI: 4280 nM
[28]
  GI50: 1520 nM
  TGI: 4850 nM
[29]
  GI50: 1610 nM
  TGI: 2970 nM
[30]
  GI50: 1810 nM
  TGI: 3790 nM
[31]
  GI50: 1740 nM
  TGI: 4090 nM
[32]
  GI50: 1660 nM
  TGI: 3060 nM
[33]
  GI50: 2010 nM
  TGI: 4230 nM
[34]
  GI50: 1730 nM
  TGI: 3540 nM
[35]
  GI50: 1750 nM
  TGI: 3400 nM
[36]
  GI50: 1750 nM
  TGI: 3600 nM
[37]
  GI50: 1610 nM
  TGI: 3100 nM
[38]
  GI50: 1890 nM
  TGI: 3610 nM
[39]
  GI50: 1550 nM
  TGI: 3600 nM
[40]
  GI50: 1320 nM
  TGI: 3340 nM
[41]
  GI50: 1340 nM
  TGI: 2660 nM
[42]
  GI50: 2050 nM
  TGI: 5030 nM
[43]
  GI50: 1630 nM
  TGI: 3260 nM
[44]
  GI50: 2000 nM
  TGI: 4390 nM
[45]
  GI50: 1920 nM
  TGI: 4430 nM
[46]
  GI50: 1900 nM
  TGI: 3810 nM
[47]
  GI50: 2060 nM
  TGI: 5590 nM
[48]
  GI50: 1510 nM
  TGI: 3460 nM
[49]
  GI50: 2660 nM
  TGI: 6930 nM
[50]
  GI50: 2020 nM
  TGI: 5660 nM
[51]
  GI50: 944 nM
  TGI: 5040 nM
[52]
  GI50: 1730 nM
  TGI: 4020 nM
[53]
  GI50: 2150 nM
  TGI: 5430 nM
[54]
  GI50: 1730 nM
  TGI: 3250 nM
[55]
  GI50: 1290 nM
  TGI: 3710 nM
[56]
  GI50: 1870 nM
  TGI: 3640 nM
